According to ChEMBL document CHEMBL4765241, “Identification and Preclinical Pharmacology of ((1 R,3 S)-1-Amino-3-(( S)-6-(2-methoxyphenethyl)-5,6,7,8-tetrahydronaphthalen-2-yl)cyclopentyl)methanol (BMS-986166): A Differentiated Sphingosine-1-phosphate Receptor 1 (S1P) Modulator Advanced into Clinical Trials” (J Med Chem, 2019):

How the values were obtained:
Rattus norvegicus [1] = assay: Reduction in circulating lymphocytes in Lewis rat blood at 2 mg/kg, po measured at 24 hrs by hematology analyzer based analysis; format: functional; design: scale not given: the % may be the effect or the level left
[2] = Pulmonary toxicity in Lewis rat assessed as elevation of BAL protein level at 2 mg/kg by advia1800 chemistry analyzer; format: organism-based; settings: in vivo
[3] = Drug metabolism in Lewis rat blood assessed as concentration of parent compound at 2 mg/kg, po measured at 4 hrs by LC-MS/MS analysis; format: ADME, organism-based; settings: read-out: Ct
[4] = Ratio of drug metabolism in Lewis rat blood assessed as phosphate ester metabolite to parent drug at 2 mg/kg, po measured at 24 hrs by LC-MS/MS analysis; format: ADME, organism-based; settings: in vivo
[5] = Pulmonary toxicity in Lewis rat assessed as elevation of BAL protein level at 10 mg/kg by advia1800 chemistry analyzer; format: organism-based; settings: in vivo
Rattus norvegicus [6] = assay: Reduction in circulating lymphocytes in Lewis rat blood at 2 mg/kg, po measured at 4 hrs by hematology analyzer based analysis; format: functional; design: scale not given: the % may be the effect or the level left
[7] = Drug metabolism in Lewis rat blood assessed as concentration of parent compound at 2 mg/kg, po measured at 24 hrs by LC-MS/MS analysis; format: ADME, organism-based; settings: read-out: Ct
Rattus norvegicus [8] = assay: Reduction in circulating lymphocytes in Lewis rat blood assessed as effective dose after oral dosing measured at 24 hrs by hematology analyzer based analysis; format: functional
[9] = Half-life in Lewis rat at 2 mg/kg, po measured over 72 hrs by LC-MS/MS analysis; format: ADME, organism-based; settings: in vivo
Rattus norvegicus [10] = assay: Drug metabolism in Lewis rat blood assessed as concentration of phosphate ester metabolite formation at 2 mg/kg, po measured at 4 hrs by LC-MS/MS analysis; settings: in vivo
[11] = Drug metabolism in Balb/c mouse blood assessed as concentration of phosphate ester metabolite formation at 50 mg/kg, po measured at 4 hrs by LC-MS/MS analysis; format: ADME, organism-based; settings: in vivo
[12] = Drug metabolism in Balb/c mouse blood assessed as concentration of parent compound at 1 mg/kg, po measured at 4 hrs by LC-MS/MS analysis; format: ADME, organism-based; settings: Balb/c, blood, read-out: Ct
[13] = Drug metabolism in Balb/c mouse blood assessed as concentration of parent compound at 50 mg/kg, po measured at 24 hrs by LC-MS/MS analysis; format: ADME, organism-based; settings: read-out: Ct
[14] = Drug metabolism in Balb/c mouse blood assessed as concentration of parent compound at 1 mg/kg, po measured at 24 hrs by LC-MS/MS analysis; format: ADME, organism-based; settings: Balb/c, blood, read-out: Ct
[15] = Ratio of drug metabolism in Balb/c mouse blood assessed as phosphate ester metabolite to parent drug at 30 mg/kg, po measured at 24 hrs by LC-MS/MS analysis; settings: in vivo
Mus musculus [16] = assay: Reduction in circulating lymphocytes in Balb/c mouse blood at 1 mg/kg, po measured at 4 hrs by hematology analyzer based analysis; format: functional; design: scale not given: the % may be the effect or the level left
[17] = Drug metabolism in Balb/c mouse blood assessed as concentration of phosphate ester metabolite formation at 1 mg/kg, po measured at 4 hrs by LC-MS/MS analysis; format: ADME, organism-based; settings: in vivo
Mus musculus [18] = assay: Reduction in circulating lymphocytes in Balb/c mouse blood at 50 mg/kg, po measured at 4 hrs by hematology analyzer based analysis; format: functional; design: scale not given: the % may be the effect or the level left
[19] = Drug metabolism in Balb/c mouse blood assessed as concentration of phosphate ester metabolite formation at 1 mg/kg, po measured at 24 hrs by LC-MS/MS analysis; format: ADME, organism-based; settings: in vivo
Mus musculus [20] = assay: Reduction in circulating lymphocytes in Balb/c mouse blood at 1 mg/kg, po measured at 24 hrs by hematology analyzer based analysis; format: functional; design: scale not given: the % may be the effect or the level left
[21] = Drug metabolism in Balb/c mouse blood assessed as concentration of parent compound at 50 mg/kg, po measured at 4 hrs by LC-MS/MS analysis; format: ADME, organism-based; settings: read-out: Ct
Mus musculus [22] = assay: Reduction in circulating lymphocytes in Balb/c mouse blood at 50 mg/kg, po measured at 24 hrs by hematology analyzer based analysis; format: functional; design: scale not given: the % may be the effect or the level left
[23] = Drug metabolism in Balb/c mouse blood assessed as concentration of phosphate ester metabolite formation at 50 mg/kg, po measured at 24 hrs by LC-MS/MS analysis; format: ADME, organism-based; settings: in vivo
[24] = Cardiotoxicity in human iPSC derived cardiomyocytes assessed as reduction in beating rate at 10 nM measured over 2 hrs by multi-electrode array relative to control; format: toxicity, cell-based; design: scale not given: the % may be the effect or the level left; settings: stem cell-derived cardiomyocyte, 0.01 µM
[25] = Cardiotoxicity in human iPSC derived cardiomyocytes assessed as reduction in beating rate at 1 nM measured over 2 hrs by multi-electrode array relative to control; format: toxicity, cell-based; design: scale not given: the % may be the effect or the level left; settings: stem cell-derived cardiomyocyte, 0.001 µM
[26] = Ratio of drug metabolism in Balb/c mouse blood assessed as phosphate ester metabolite to parent drug at 1 mg/kg, po measured at 24 hrs by LC-MS/MS analysis; format: ADME, organism-based; settings: in vivo
[27] = Pulmonary toxicity in Lewis rat assessed as elevation of BAL protein level at 3 mg/kg by advia1800 chemistry analyzer; format: organism-based; settings: in vivo
[28] = Drug metabolism in pH 7.4 Tris-HCl buffer assessed as amount of phosphate ester metabolite formation at […] in presence of sphingosine kinase 1,2 and Mg-ATP incubated for 30 mins by TLC based analysis relative to fingolimod

## COc1ccccc1CC[C@H]1CCc2cc([C@H]3CC[C@](N)(CO)C3)ccc2C1
Rattus norvegicus [1]
  Activity: 81%
[2]
  Activity: 10.5 mg/dL
[3]
  concentration at 4 h: 90 nM
[4]
  Ratio: 1
[5]
  Activity: 29 mg/dL
Rattus norvegicus [6]
  Activity: 46%
[7]
  concentration at 24 h: 50 nM
Rattus norvegicus [8]
  ED50: 0.05 mg/kg
[9]
  half-life: 1200 min
Rattus norvegicus [10]
  Drug metabolism: 40 nM

## N[C@]1(CO)CC[C@H](c2ccc3c(c2)CC[C@@H](Cc2ccccc2)C3)C1
[11]
  Drug metabolism: 1100 nM
[12]
  concentration at 4 h: 12 nM
[13]
  concentration at 24 h: 530 nM
[14]
  concentration at 24 h: 5.6 nM
[15]
  Ratio: 1.4
Mus musculus [16]
  Activity: <10%
[17]
  Drug metabolism: 5.6 nM
Mus musculus [18]
  Activity: 82%
[19]; BLD = below limit of detection
  Drug metabolism: Bld
Mus musculus [20]
  Activity: <10%
[21]
  concentration at 4 h: 2400 nM
Mus musculus [22]
  Activity: 84%
[23]
  Drug metabolism: 750 nM

## COc1cccc(CC[C@H]2CCc3cc([C@H]4CC[C@](N)(COP(=O)(O)O)C4)ccc3C2)c1
[24]
  Activity: 20%
[25]
  Activity: 23%

## COc1ccccc1CC1CCc2cc([C@H]3CC[C@](N)(CO)C3)ccc2C1 (some centres not stated)
Rattus norvegicus [1]
  Activity: 13%
Rattus norvegicus [6]
  Activity: <10%

## COc1ccccc1CC[C@H]1CCc2cc([C@H]3CC[C@](N)(COP(=O)(O)O)C3)ccc2C1
[24]
  Activity: 18%
[25]
  Activity: 17%

## COc1ccc(CC[C@@H]2CCc3cc([C@H]4CC[C@](N)(COP(=O)(O)O)C4)ccc3C2)cc1
[24]
  Activity: 35%
[25]
  Activity: 27%

## COc1cccc(CC[C@@H]2CCc3cc([C@H]4CC[C@](N)(COP(=O)(O)O)C4)ccc3C2)c1
[24]
  Activity: 31%
[25]
  Activity: 15%

## N[C@]1(CO)CC[C@H](c2ccc3c(c2)CC[C@H](Cc2ccccc2)C3)C1
[11]
  Drug metabolism: 480 nM
[12]
  concentration at 4 h: 28 nM
[13]
  concentration at 24 h: 300 nM
[14]
  concentration at 24 h: 9 nM
[26]
  Ratio: 1.2
[15]
  Ratio: 1
Mus musculus [16]
  Activity: 21%
[17]
  Drug metabolism: 12 nM
Mus musculus [18]
  Activity: 83%
[19]
  Drug metabolism: 11 nM
Mus musculus [20]
  Activity: 15%
[21]
  concentration at 4 h: 1800 nM
Mus musculus [22]
  Activity: 78%
[23]
  Drug metabolism: 310 nM

## COc1cccc(CC[C@@H]2CCc3cc([C@H]4CC[C@](N)(CO)C4)ccc3C2)c1
Rattus norvegicus [1]
  Activity: 84%
[3]
  concentration at 4 h: 90 nM
[27]
  Activity: 10 mg/dL
[4]
  Ratio: 6.3
[5]
  Activity: 12.7 mg/dL
Rattus norvegicus [6]
  Activity: 69%
[7]
  concentration at 24 h: 80 nM
Rattus norvegicus [8]
  ED50: 0.05 mg/kg
[9]
  half-life: 1860 min
Rattus norvegicus [10]
  Drug metabolism: 160 nM

## N[C@]1(CO)CC[C@H](c2ccc3c(c2)CC[C@H](CCc2ccccc2)C3)C1
Rattus norvegicus [1]
  Activity: 78%
[3]
  concentration at 4 h: 230 nM
[4]
  Ratio: 1.2
Rattus norvegicus [6]
  Activity: 11%
[7]
  concentration at 24 h: 300 nM
[9]
  half-life: > 4500 min
Rattus norvegicus [10]
  Drug metabolism: 40 nM

## COc1cccc(CC[C@H]2CCc3cc([C@H]4CC[C@](N)(CO)C4)ccc3C2)c1
Rattus norvegicus [1]
  Activity: 85%
[2]
  Activity: 10 mg/dL
[3]
  concentration at 4 h: 120 nM
[4]
  Ratio: 1.1
[5]
  Activity: 17.5 mg/dL
Rattus norvegicus [6]
  Activity: 44%
[7]
  concentration at 24 h: 210 nM
Rattus norvegicus [8]
  ED50: 0.05 mg/kg
[9]
  half-life: 2940 min
Rattus norvegicus [10]
  Drug metabolism: 30 nM

## COc1ccnc(CC[C@H]2CCc3cc([C@H]4CC[C@](N)(CO)C4)ccc3C2)c1
[28]
  Drug metabolism: 3%

## Cn1cc(CC[C@@H]2CCc3cc([C@H]4CC[C@](N)(CO)C4)ccc3C2)cn1
[28]
  Drug metabolism: 6%

## Cn1ccc(CC[C@@H]2CCc3cc([C@H]4CC[C@](N)(CO)C4)ccc3C2)n1
[28]
  Drug metabolism: 8%
